Test results from patent US8084399B2, “Process for screening of a binding amphiphilic peptides specific for hairpin RNA” (priority 2009, dated 2011).
Where no end group is shown, it is not given here. [ ]: non-standard residue; d: D form. Orn = NCCC[C@H](N)C(=O)O; Dab = NCC[C@H](N)C(=O)O; Dap = NC[C@H](N)C(=O)O

Experiments:
IRES domain IV hairpin = assay: Fluorescence anisotropy competition with Rev-N-rhodamine probe, binding to IRES hairpin; design: species or system HCV; conditions: for differentiation coefficient (IRES): (mean Kd to other hairpin RNA)/(Kd to one hairpin RNA); for binding strength to IRES, in words: compared with the original peptide; for Kd: fluorescence anisotropy, 20° C., pH 7.4, read-out: Dissociation constant, IRES
Experimental: (§1) Binding force to each target hairpin RNA (IRES, RRE, TAR and 16S A-site) was measured by fluorescence polarization using alanine scanned peptide library (1b-1h).
(§2) Particularly, […] of each target RNA was prepared at the concentration of 10 mM, which stood at 65° C. for 10 minutes and then cooled down slowly at room temperature, leading to folding. The amphiphilic peptide was prepared respectively at the concentration of […], which were maintained at 0° C. As a probe, rev peptide labeled with rhodamine (Rev-N-rhodamine) emitting […] fluorescence was prepared at the concentration of 10 mM. Buffer was composed of 140 mM NaCl, 5 mM KCl, 1 mM MgCl2, and 20 mM HEPES (N-2-Hydroxyethylpiperazine-N′-2-Ethanesulfonic Acid, pH 7.4). Fluorescence Anisotropy was measured using AMINCO-Bowman Series Luminescence Spectrometer at 20° C. Ten nM of the probe was added in […] of buffer, to which target RNA was added to induce interaction between the probe and the target RNA. At that time, anisotropy value increased. Then, the synthesized peptide competing with the probe for binding site was added thereto with increasing the concentration slowly. Changes of fluorescence polarization were measured until fluorescence polarization reached as low as the beginning. Considering the concentration and amount of the peptide added, binding force to target RNA was calculated. That is, the binding strength between target RNA and peptide was determined according to the following KaleidaGraph. [Peptide]=Kd(Amax−A)/[Kd(A−A0)+1]×[RNA]−Kd(A−A0)^2[Probe]0/(Amax−A)(Amax−A0)
(§3) Herein, [Peptide] indicates the concentration of peptide, [RNA] indicates the concentration of target RNA, and [Probe]0 indicates the concentration of probe. A is the value of fluorescence anisotropy of sample, Amax is the value of totally bound tracer, and A0 is the value of totally free tracer.

TAR hairpin RNA = assay: Fluorescence anisotropy competition with Rev-N-rhodamine probe, binding to TAR hairpin RNA; design: species or system HIV; conditions: fluorescence anisotropy, 20° C., pH 7.4; read-out: Dissociation constant, TAR
Experimental: as §1, §2, §3

RRE hairpin RNA = assay: Fluorescence anisotropy competition with Rev-N-rhodamine probe, binding to RRE hairpin RNA; design: species or system HIV; conditions: 20° C., pH 7.4, read-out: Dissociation constant, RRE
Experimental: as §1, §2, §3

16S ribosomal RNA A-site = assay: Fluorescence anisotropy competition with Rev-N-rhodamine probe, binding to 16S A-site; conditions: 20° C., pH 7.4, read-out: Dissociation constant, 16S A-site
Experimental: as §1, §2, §3

[1] = Circular dichroism (CD), percentage of alpha-helix; assay type: physicochemical; conditions: CD at 20° C., condition not given; for Alpha-helical rate (%), second value of pair: value after the slash; for Alpha-helical rate (%), first value of pair: value before the slash
Experimental: To investigate alpha-helix of the amphiphilic peptide (1a-1h), circular dichroism (CD) was performed. Particularly, CD was measured at 20° C. by using JASCO model J715 spectropolarimeter. Scanning was performed at 190-250 nm three times (bandwidth: 1 nm, datapitch: 0.5 nm, speed: 100 nm/min), which were averaged to obtain CD data. Spectrum was corrected by measuring background spectrum. CD signal was recorded after modulating thereof with mean residue ellipticity [Q]. Percentage (%) of alpha-helix(fn) was calculated by the following formula. [Q]=Qobs[MRW/(10lc)]
MRW=mean residue weight (dividing molecular weight by the number of peptide bond, l=pathway length (cm), c=concentration (mg/mL). fn=([Q]222−[Q]coil)/([Q]helix−[Q]coil) [Q]helix=−40,000[…]+100t [Q]coil=640−45t
[Q]222=mean residue ellipticity at 222 nm (deg cm2 mol-1), [Q]helix=ellipticity of peptide having complete helical structure, [Q]coil=ellipticity of peptide having complete random coil structure, n=number of amino acid, t=° C.

Substance	differentiation coefficient (IRES) (IRES domain IV hairpin)	binding strength to IRES, in words (IRES domain IV hairpin)	Kd (IRES domain IV hairpin) [nM]	Kd (TAR hairpin RNA) [nM]	Kd (RRE hairpin RNA) [nM]	Kd (16S ribosomal RNA A-site) [nM]	Alpha-helical rate (%), second value of pair [1] [%]	Alpha-helical rate (%), first value of pair [1] [%]
LKKLLKWLKKLLKLAG [2q, tryptophan scanned second generation peptide]	15	significantly increased	0.87	21	1.2	17	71	19
LKKLLKLLOrnKLLDapWAG (LKKLLKLL[Orn]KLL[Dap]WAG-NH2; N-terminus assumed; SMILES CC(C)C[C@H](NC(=O)[C@H](CC(C)C)NC(=O)[C@H](CCCCN)NC(=O)[C@H](CCCN)NC(=O)[C@H](CC(C)C)NC(=O)[C@H](CC(C)C)NC(=O)[C@H](CCCCN)NC(=O)[C@H](CC(C)C)NC(=O)[C@H](CC(C)C)NC(=O)[C@H](CCCCN)NC(=O)[C@H](CCCCN)NC(=O)[C@@H](N)CC(C)C)C(=O)N[C@@H](CN)C(=O)N[C@@H](Cc1c[nH]c2ccccc12)C(=O)N[C@@H](C)C(=O)NCC(N)=O) [peptide 3h, third generation peptide, both faces modified]	1.6	–	13	15	28	19	56	12
LKKLLKLLKKWLKLAG [2s, tryptophan scanned second generation peptide]	5.8	–	4.4	43	9.5	24	60	27
LKKLLOrnLLKKLLKLAG (LKKLL[Orn]LLKKLLKLAG-NH2; N-terminus assumed; SMILES CC(C)C[C@H](NC(=O)[C@H](CCCCN)NC(=O)[C@H](CC(C)C)NC(=O)[C@H](CC(C)C)NC(=O)[C@H](CCCCN)NC(=O)[C@H](CCCCN)NC(=O)[C@H](CC(C)C)NC(=O)[C@H](CC(C)C)NC(=O)[C@H](CCCN)NC(=O)[C@H](CC(C)C)NC(=O)[C@H](CC(C)C)NC(=O)[C@H](CCCCN)NC(=O)[C@H](CCCCN)NC(=O)[C@@H](N)CC(C)C)C(=O)N[C@@H](C)C(=O)NCC(N)=O) [2a, second generation peptide, hydrophilic face modified]	2.5	–	6.1	14	17	15	82	13
LKKLLKLLDabKLLKLAG (LKKLLKLL[Dab]KLLKLAG-NH2; N-terminus assumed; SMILES CC(C)C[C@H](NC(=O)[C@H](CCCCN)NC(=O)[C@H](CC(C)C)NC(=O)[C@H](CC(C)C)NC(=O)[C@H](CCCCN)NC(=O)[C@H](CCN)NC(=O)[C@H](CC(C)C)NC(=O)[C@H](CC(C)C)NC(=O)[C@H](CCCCN)NC(=O)[C@H](CC(C)C)NC(=O)[C@H](CC(C)C)NC(=O)[C@H](CCCCN)NC(=O)[C@H](CCCCN)NC(=O)[C@@H](N)CC(C)C)C(=O)N[C@@H](C)C(=O)NCC(N)=O) [2e, second generation peptide, hydrophilic face modified]	6.5	–	3.5	28	23	17	57	43
LKKLLKLLOrnKLLKWAG (LKKLLKLL[Orn]KLLKWAG-NH2; N-terminus assumed; SMILES CC(C)C[C@H](NC(=O)[C@H](CC(C)C)NC(=O)[C@H](CCCCN)NC(=O)[C@H](CCCN)NC(=O)[C@H](CC(C)C)NC(=O)[C@H](CC(C)C)NC(=O)[C@H](CCCCN)NC(=O)[C@H](CC(C)C)NC(=O)[C@H](CC(C)C)NC(=O)[C@H](CCCCN)NC(=O)[C@H](CCCCN)NC(=O)[C@@H](N)CC(C)C)C(=O)N[C@@H](CCCCN)C(=O)N[C@@H](Cc1c[nH]c2ccccc12)C(=O)N[C@@H](C)C(=O)NCC(N)=O) [3f, third generation peptide, both faces modified]	1.0	–	6.1	4.7	3.6	10	58	36
LKKLLKLLKKLLALKG [1g, alanine scanned first generation peptide]	0.47	reduced binding strength	210	39	90	200	44	8
LKKLLDabLLOrnKLLKLAG (LKKLL[Dab]LL[Orn]KLLKLAG-NH2; N-terminus assumed; SMILES CC(C)C[C@H](NC(=O)[C@H](CCCCN)NC(=O)[C@H](CC(C)C)NC(=O)[C@H](CC(C)C)NC(=O)[C@H](CCCCN)NC(=O)[C@H](CCCN)NC(=O)[C@H](CC(C)C)NC(=O)[C@H](CC(C)C)NC(=O)[C@H](CCN)NC(=O)[C@H](CC(C)C)NC(=O)[C@H](CC(C)C)NC(=O)[C@H](CCCCN)NC(=O)[C@H](CCCCN)NC(=O)[C@@H](N)CC(C)C)C(=O)N[C@@H](C)C(=O)NCC(N)=O) [2j, second generation peptide, hydrophilic face modified]	6.3	–	2.4	10	21	14	57	49
LKKLWKLLKKLLKLAG [2p, tryptophan scanned second generation peptide]	3.3	–	2.8	9.8	6.2	12	56	20
LKKLLKLLKKLLDabLAG (LKKLLKLLKKLL[Dab]LAG-NH2; N-terminus assumed; SMILES CC(C)C[C@H](NC(=O)[C@H](CCN)NC(=O)[C@H](CC(C)C)NC(=O)[C@H](CC(C)C)NC(=O)[C@H](CCCCN)NC(=O)[C@H](CCCCN)NC(=O)[C@H](CC(C)C)NC(=O)[C@H](CC(C)C)NC(=O)[C@H](CCCCN)NC(=O)[C@H](CC(C)C)NC(=O)[C@H](CC(C)C)NC(=O)[C@H](CCCCN)NC(=O)[C@H](CCCCN)NC(=O)[C@@H](N)CC(C)C)C(=O)N[C@@H](C)C(=O)NCC(N)=O) [2h, second generation peptide, hydrophilic face modified]	2.0	–	8.7	12	14	25	34	24
LKKLLKLLKKLWKLAG [2t, tryptophan scanned second generation peptide]	5.9	–	2.3	10	13	17	58	12
LKALLKLLKKLLKLKG [1c, alanine scanned first generation peptide]	1.3	–	62	87	56	92	42	10
